# Results taken from ChEMBL document CHEMBL5154761, “Design, synthesis, and evaluation of 9-(pyrimidin-2-yl)-9H-carbazole derivatives disrupting mitochondrial homeostasis in human lung adenocarcinoma” (Eur J Med Chem, 2022).
# The source made the active and inactive calls. No cut-off for these calls is given here.
# Legend:
# A549 [1] = assay: Induction of cell cycle arrest in human A549 cells assessed as accumulation at G2/M phase at 10 uM incubated for 48 hrs by PI staining based flow cytometry analysis; format: functional
# A549 [2] = assay: Cytotoxicity against human A549 cells assessed as cell growth inhibition incubated for 48 hrs by MTT assay; format: functional, cell-based; conditions: A549, 48 h
# A549 [3] = assay: Cytotoxicity against human A549 cells assessed as cell growth inhibition at 10 uM incubated for 48 hrs by MTT assay relative to control; format: functional
SMILES,Activity (A549 [1]),IC50 (A549 [2]) [µM],inhibition at 10 µM (A549 [3]) [%]
O=C(c1ccc(Cl)cc1)c1cccc2c3ccccc3n(-c3ncccn3)c12,Active,6.69,50
CCOC(=O)c1cccc2c3ccccc3n(-c3ncccn3)c12,,,50
O=C(c1ccc(Br)cc1)c1cccc2c3ccccc3n(-c3ncccn3)c12,Active,7.5,50
O=C(c1ccc(OCc2ccccc2)cc1)c1cccc2c3ccccc3n(-c3ncccn3)c12,,2.15,< 50
O=C(c1cccs1)c1cccc2c3ccccc3n(-c3ncccn3)c12,Active,4.02,< 50
COc1ccc(C(=O)c2cccc3c4ccccc4n(-c4ncccn4)c23)cc1OC,Active,3.1,50
O=C(c1ccc(F)cc1)c1cccc2c3ccccc3n(-c3ncccn3)c12,Active,2.58,< 50
COc1cccc(C(=O)c2cccc3c4ccccc4n(-c4ncccn4)c23)c1,Active,2.39,50
Cc1ccc(C(=O)c2cccc3c4ccccc4n(-c4ncccn4)c23)cc1,Active,10,50
Cc1c2ccncc2c(C)c2c1[nH]c1ccccc12 [ELLIPTECINE],,3.45,
COc1ccccc1C(=O)c1cccc2c3ccccc3n(-c3ncccn3)c12,Active,4.02,< 50
O=C(OCc1ccccc1)c1cccc2c3ccccc3n(-c3ncccn3)c12,Active,5.23,
